Measured values published in paper PMC7747014 (Journal of medicinal chemistry, 2015).
Entries after “also recorded” stand apart in the source; their conditions may differ. Like-named read-outs stand apart in the source and are kept apart here.

Key:
Human recombinant Top1 [1] = molecular target: T1, Human recombinant Top1 (Homo sapiens, UniProt P11387); assay: Top1-mediated DNA cleavage assay; assay type: biochemical; conditions: for trapping of Top1 cleavage complexes at low concentration: 5 nM, dose-dependent gel (Figure 8)
T1 sequence (P11387 1-765): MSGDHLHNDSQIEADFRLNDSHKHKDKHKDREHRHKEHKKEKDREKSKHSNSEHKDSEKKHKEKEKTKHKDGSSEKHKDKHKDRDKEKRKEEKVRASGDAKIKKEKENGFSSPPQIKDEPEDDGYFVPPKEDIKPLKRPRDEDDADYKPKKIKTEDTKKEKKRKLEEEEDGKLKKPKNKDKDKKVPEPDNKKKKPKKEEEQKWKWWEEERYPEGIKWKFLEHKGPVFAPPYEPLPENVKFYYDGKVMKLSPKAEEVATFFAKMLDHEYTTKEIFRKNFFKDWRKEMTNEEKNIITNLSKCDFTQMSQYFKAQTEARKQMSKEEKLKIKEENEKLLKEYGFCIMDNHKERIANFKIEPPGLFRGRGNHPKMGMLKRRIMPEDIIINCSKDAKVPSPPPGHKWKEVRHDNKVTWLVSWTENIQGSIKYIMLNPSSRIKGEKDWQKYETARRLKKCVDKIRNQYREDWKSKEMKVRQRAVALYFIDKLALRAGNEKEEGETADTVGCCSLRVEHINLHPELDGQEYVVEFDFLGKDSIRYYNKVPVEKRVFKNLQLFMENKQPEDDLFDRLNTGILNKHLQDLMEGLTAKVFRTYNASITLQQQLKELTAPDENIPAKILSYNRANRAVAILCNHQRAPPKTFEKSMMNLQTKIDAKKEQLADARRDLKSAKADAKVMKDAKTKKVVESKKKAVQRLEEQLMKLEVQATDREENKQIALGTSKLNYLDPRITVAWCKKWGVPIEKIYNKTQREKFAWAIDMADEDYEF

[2] = molecular target: T2, drug−Top1−DNA cleavage complexes (Homo sapiens, UniProt P11387); assay: Kinetics of reversal assay of Top1-mediated DNA cleavage complexes; assay type: biochemical; conditions: for reversal of ternary cleavage complexes: common cleavage sites 70, 92, 97 and 119, forward reaction terminated with 0.35 M NaCl
T2 sequence (P11387 1-765): T1 sequence (P11387 1-765)

Human recombinant Top1 [3] = molecular target: T1, Human recombinant Top1; conditions: graded relative to 1 μM camptothecin; cited from earlier work
lung HOP-62 = conditions: read-out: cytotoxicity (GI50 in μM) lung HOP-62; cited from earlier work
CNS SF-539 = conditions: read-out: cytotoxicity (GI50 in μM) CNS SF-539; cited from earlier work
melanoma UACC-62 = conditions: read-out: cytotoxicity (GI50 in μM) melanoma UACC-62; cited from earlier work
prostate DU-145 = conditions: read-out: cytotoxicity (GI50 in μM) prostate DU-145; cited from earlier work
breast MCF7 = conditions: read-out: cytotoxicity (GI50 in μM) breast MCF7; cited from earlier work
recombinant TDP1 [4] = molecular target: T3, recombinant TDP1 (Homo sapiens, UniProt Q9NUW8); conditions: read-out: TDP1 inhibition; semiquantitative IC50 scale; cited from earlier work
T3 sequence (Q9NUW8 whole entry): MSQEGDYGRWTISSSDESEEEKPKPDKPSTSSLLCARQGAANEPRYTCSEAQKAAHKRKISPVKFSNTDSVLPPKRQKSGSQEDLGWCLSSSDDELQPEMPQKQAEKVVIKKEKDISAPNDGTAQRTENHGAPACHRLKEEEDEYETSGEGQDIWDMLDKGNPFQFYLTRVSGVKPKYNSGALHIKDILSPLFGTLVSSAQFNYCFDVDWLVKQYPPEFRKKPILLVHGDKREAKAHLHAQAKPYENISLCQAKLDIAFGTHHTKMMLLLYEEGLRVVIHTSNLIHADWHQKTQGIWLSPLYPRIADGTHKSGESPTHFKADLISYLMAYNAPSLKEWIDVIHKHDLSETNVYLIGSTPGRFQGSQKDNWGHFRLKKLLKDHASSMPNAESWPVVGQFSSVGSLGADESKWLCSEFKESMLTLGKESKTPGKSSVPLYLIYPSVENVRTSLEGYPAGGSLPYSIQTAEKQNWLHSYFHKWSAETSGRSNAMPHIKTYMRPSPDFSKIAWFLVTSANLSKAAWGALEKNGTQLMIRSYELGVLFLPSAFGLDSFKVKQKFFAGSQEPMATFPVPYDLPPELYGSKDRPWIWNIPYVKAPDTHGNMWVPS

[5] = tested on: 60 common human cancer cell lines (NCI-60); conditions: read-out: MGM; average GI50 across 60 cell lines; cited from earlier work
colon HCT-116 = conditions: read-out: cytotoxicity (GI50 in μM) colon HCT-116; cited from earlier work
ovarian OVACAR-3 = conditions: read-out: cytotoxicity (GI50 in μM) ovarian OVACAR-3; cited from earlier work
renal SN12C = conditions: read-out: cytotoxicity (GI50 in μM) renal SN12C; cited from earlier work
recombinant TDP1 [6] = molecular target: T3, recombinant TDP1; assay: Gel-based assay measuring the inhibition of recombinant TDP1; assay type: biochemical; conditions: read-out: TDP1 inhibition; semiquantitative IC50 scale

| Structure (SMILES) | trapping of Top1 cleavage complexes at low concentration (Human recombinant Top1 [1]) | reversal of ternary cleavage complexes [2] | Top1 cleavage (Human recombinant Top1 [3]) | GI50 (lung HOP-62) | GI50 (CNS SF-539) | GI50 (melanoma UACC-62) | GI50 (prostate DU-145) | GI50 (breast MCF7) | IC50 (recombinant TDP1 [4]) | GI50 [5] | GI50 (colon HCT-116) | GI50 (ovarian OVACAR-3) | GI50 (renal SN12C) | Top1 cleavage (Human recombinant Top1 [1]; graded relative to 1 μM camptothecin) | IC50 (recombinant TDP1 [6]) | DNA alkylation / irreversible ternary cleavage complex ([2]; from decrease of cleavage bands over time) |
| --- | --- | --- | --- | --- | --- | --- | --- | --- | --- | --- | --- | --- | --- | --- | --- | --- |
| CC[C@@]1(O)C(=O)OCc2c1cc1n(c2=O)Cc2cc3ccccc3nc2-1 [Compound 1, camptothecin] | lesser activity at that concentration | reversed much faster | ++++ | < 0.01 µM | < 0.01 µM | < 0.01 µM | < 0.01 µM | < 0.01 µM | – | – | – | – | – | – | – | – |
| COc1cc2c(cc1O)-c1c(c3cc(OC)c(OC)cc3c(=O)n1CCCN1CCOCC1)C2=O [Compound 8] | – | – | – | 0.18 µM | 0.28 µM | 0.07 µM | 0.2 µM | 0.03 µM | 37 to 111 µM | 3.1 ± 0.3 µM | 2.3 µM | 8.3 µM | 0.19 µM | – | – | – |
| O=C1c2cc(O)ccc2-c2c1c1ccc([N+](=O)[O-])cc1c(=O)n2CCCBr [Compound 68, 6-(3-Bromopropyl)-9-hydroxy-3-nitro-5H-indeno[1,2-c]-isoquinoline-5,11(6H)-dione] | trapped Top1 cleavage complexes at a concentration as low as 5 nM | quite persistent but did reverse over time; also recorded: reversed slower than that of camptothecin | – | – | – | – | – | – | – | – | – | – | – | +++++ | 37 to 111 µM | did not alkylate or form an irreversible ternary cleavage complex; also recorded: no evidence of DNA alkylation |
